Assay results: patent US20250312462A1, “PAK1 DEGRADERS AND METHODS OF USE THEREOF” (INSTITUTE FOR CANCER RESEARCH D/B/A THE RESEARCH INSTITUTE …, priority 2022, published 2025)

Experiments:
CLK2 = CLK2 (Homo sapiens, UniProt P49760); assay: KINOMEscan; conditions: read-out: Percent Control
Experimental: (§1) The kinase engagement assay (KINOMEscan®) was performed by DiscoverX assessing binding abilities toward a set of kinases.

[1] = biological target: ABL1(Y253F)-phosphorylated (Homo sapiens, UniProt P00519, Y253F); assay: KINOMEscan; conditions: read-out: Percent Control
Experimental: as §1

PLK4 = PLK4 (Homo sapiens, UniProt O00444); assay: KINOMEscan; conditions: read-out: Percent Control
Experimental: as §1

CAMK2D = CAMK2D (Homo sapiens, UniProt Q13557); assay: KINOMEscan; conditions: read-out: Percent Control
Experimental: as §1

ROS1 = ROS1 (Homo sapiens, UniProt P08922); assay: KINOMEscan; conditions: read-out: Percent Control
Experimental: as §1

CSNK1A1 = CSNK1A1 (Homo sapiens, UniProt P48729); assay: KINOMEscan; conditions: read-out: Percent Control
Experimental: as §1

EPHA7 = EPHA7 (Homo sapiens, UniProt Q15375); assay: KINOMEscan; conditions: read-out: Percent Control
Experimental: as §1

ROCK2 = ROCK2 (Homo sapiens, UniProt O75116); assay: KINOMEscan; conditions: read-out: Percent Control
Experimental: as §1

MRCKA = MRCKA (Homo sapiens, UniProt Q5VT25); assay: KINOMEscan; conditions: read-out: Percent Control
Experimental: as §1

ADCK3 = ADCK3 (Homo sapiens, UniProt Q8NI60); assay: KINOMEscan; conditions: read-out: Percent Control
Experimental: as §1

DMPK2 = DMPK2 (Homo sapiens, UniProt Q6DT37); assay: KINOMEscan; conditions: read-out: Percent Control
Experimental: as §1

PAK3 = PAK3 (Homo sapiens, UniProt O75914); assay: KINOMEscan; conditions: read-out: Percent Control
Experimental: as §1

TLK2 = TLK2 (Homo sapiens, UniProt Q86UE8); assay: KINOMEscan; conditions: read-out: Percent Control
Experimental: as §1

ULK3 = ULK3 (Homo sapiens, UniProt Q6PHR2); assay: KINOMEscan; conditions: read-out: Percent Control
Experimental: as §1

NLK = NLK (Homo sapiens, UniProt Q9UBE8); assay: KINOMEscan; conditions: read-out: Percent Control
Experimental: as §1

CDK4-cyclinD3 = CDK4-cyclinD3 (Homo sapiens, UniProt P11802); assay: KINOMEscan; conditions: read-out: Percent Control
Experimental: as §1

WEE1 = WEE1 (Homo sapiens, UniProt P30291); assay: KINOMEscan; conditions: read-out: Percent Control
Experimental: as §1

MEK2 = MEK2 (Homo sapiens, UniProt P36507); assay: KINOMEscan; conditions: read-out: Percent Control
Experimental: as §1

HPK1 = HPK1 (Homo sapiens, UniProt Q92918); assay: KINOMEscan; conditions: read-out: Percent Control
Experimental: as §1

BMPR2 = BMPR2 (Homo sapiens, UniProt Q13873); assay: KINOMEscan; conditions: read-out: Percent Control
Experimental: as §1

TGFBR1 = TGFBR1 (Homo sapiens, UniProt P36897); assay: KINOMEscan; conditions: read-out: Percent Control
Experimental: as §1

MRCKB = MRCKB (Homo sapiens, UniProt Q9Y5S2); assay: KINOMEscan; conditions: read-out: Percent Control
Experimental: as §1

PRKG2 = PRKG2 (Homo sapiens, UniProt Q13237); assay: KINOMEscan; conditions: read-out: Percent Control
Experimental: as §1

Nluc-PAK1 = biological target: T1, Nluc-PAK1 (Homo sapiens, UniProt Q13153+Q96SW2); assay: Nluc-PAK1 luciferase assay in HEK293 cells; format: cell-based
T1 construct: […]; expressed in transfected cells
Experimental: MCF7 ([…], CVCL_0031) were cultured in high-glucose DMEM medium (Gibco) supplemented with 10% fetal bovine serum (HyClone), 2 mM L-glutamine and 100 U/ml penicillin/streptomycin (Gibco). MOLT4 ([…], CVCL_0013) were cultured in RPMI 1640 medium (Gibco) supplemented with 10% fetal bovine serum and 2 mM L-glutamine. OVCAR3 ([…], CVCL_0465), Hey A8 ([…], CVCL_8878) and OMM1 ([…], CVCL_6939) were cultured in RPMI 1640 medium (Gibco) supplemented with 10% fetal bovine serum, 2 mM L-glutamine and 100 U/ml penicillin/streptomycin (Gibco). All cell lines were cultured at 37° C. in a humidified 5% CO2 incubator. HEK293 cells stably expressing Nluc-PAK1 were constructed by transfecting with the pFN31K Nluc-PAK1 expression vector (0.5 μg DNA per well) in 12-well plates using Lipofectamine™ 3000 (Invitrogen) according to the manufacturer's protocol. Transfected Nluc-PAK1 cells were cultured for 1 week in DMEM medium containing G418 (2 mg mL^−1) to select stable clones.
HEK293 cells stably expressing pFN31K-Nluc-PAK1 were assayed for luciferase activity according to the manufacturer's Nano-Glo® Live Cell Assay System protocol (Promega). In brief, 25 μl of Nano-Glo® Live Cell Reagent was added per well and the plate was gently mixed by hand, then placed in a 37° C. luminometer for 10 minutes.
To better quantify the effect of degrader treatment, HEK293 cells were transfected with an expression vector encoding nano-luciferase (Nluc)-tagged PAK1. The Nluc tag allows for luciferase-based quantitation of protein expression (England, et al. (2016) Bioconjug. Chem., 27:1175-1187). Nluc-PAK1 cells were treated with BJG-05-039 or its N-methylated analog, BJG-05-098, and PAK1 expression was assessed (FIG. 2D).

p38-alpha = p38-alpha (Homo sapiens, UniProt Q16539); assay: KINOMEscan; conditions: read-out: Percent Control
Experimental: as §1

CIT = CIT (Homo sapiens, UniProt O14578); assay: KINOMEscan; conditions: read-out: Percent Control
Experimental: as §1

CAMK1G = CAMK1G (Homo sapiens, UniProt Q96NX5); assay: KINOMEscan; conditions: read-out: Percent Control
Experimental: as §1

TNK1 = TNK1 (Homo sapiens, UniProt Q13470); assay: KINOMEscan; conditions: read-out: Percent Control
Experimental: as §1

T1 sequence (Q13153 whole entry): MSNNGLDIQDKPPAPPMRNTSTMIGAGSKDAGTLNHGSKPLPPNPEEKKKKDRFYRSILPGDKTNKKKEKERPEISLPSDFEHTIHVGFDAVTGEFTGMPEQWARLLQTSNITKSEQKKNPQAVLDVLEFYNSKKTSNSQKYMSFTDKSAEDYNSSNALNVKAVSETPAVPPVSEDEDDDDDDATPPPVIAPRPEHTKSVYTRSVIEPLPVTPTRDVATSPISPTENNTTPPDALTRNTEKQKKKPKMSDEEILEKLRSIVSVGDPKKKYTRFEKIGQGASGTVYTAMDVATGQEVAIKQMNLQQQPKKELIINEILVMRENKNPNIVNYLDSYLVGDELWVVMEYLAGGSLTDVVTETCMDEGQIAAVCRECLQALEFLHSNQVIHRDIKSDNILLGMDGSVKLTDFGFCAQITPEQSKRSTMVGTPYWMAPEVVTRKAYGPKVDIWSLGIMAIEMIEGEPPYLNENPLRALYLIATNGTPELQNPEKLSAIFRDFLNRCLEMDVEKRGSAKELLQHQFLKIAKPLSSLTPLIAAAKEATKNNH
T1 sequence (Q96SW2 whole entry): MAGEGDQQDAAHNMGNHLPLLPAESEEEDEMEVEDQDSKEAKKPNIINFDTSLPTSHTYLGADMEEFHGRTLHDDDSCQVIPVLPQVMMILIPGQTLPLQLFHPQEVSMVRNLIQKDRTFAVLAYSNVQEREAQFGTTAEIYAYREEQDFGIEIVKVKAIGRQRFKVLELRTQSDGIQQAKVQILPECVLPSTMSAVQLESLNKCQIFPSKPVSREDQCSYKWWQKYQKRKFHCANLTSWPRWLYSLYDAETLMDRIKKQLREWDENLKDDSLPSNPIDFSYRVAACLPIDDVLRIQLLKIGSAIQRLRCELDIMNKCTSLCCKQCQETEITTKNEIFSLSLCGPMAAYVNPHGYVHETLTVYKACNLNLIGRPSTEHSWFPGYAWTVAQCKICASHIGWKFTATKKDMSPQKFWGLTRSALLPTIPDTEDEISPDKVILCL
T1 sequence (Q16531 whole entry partner): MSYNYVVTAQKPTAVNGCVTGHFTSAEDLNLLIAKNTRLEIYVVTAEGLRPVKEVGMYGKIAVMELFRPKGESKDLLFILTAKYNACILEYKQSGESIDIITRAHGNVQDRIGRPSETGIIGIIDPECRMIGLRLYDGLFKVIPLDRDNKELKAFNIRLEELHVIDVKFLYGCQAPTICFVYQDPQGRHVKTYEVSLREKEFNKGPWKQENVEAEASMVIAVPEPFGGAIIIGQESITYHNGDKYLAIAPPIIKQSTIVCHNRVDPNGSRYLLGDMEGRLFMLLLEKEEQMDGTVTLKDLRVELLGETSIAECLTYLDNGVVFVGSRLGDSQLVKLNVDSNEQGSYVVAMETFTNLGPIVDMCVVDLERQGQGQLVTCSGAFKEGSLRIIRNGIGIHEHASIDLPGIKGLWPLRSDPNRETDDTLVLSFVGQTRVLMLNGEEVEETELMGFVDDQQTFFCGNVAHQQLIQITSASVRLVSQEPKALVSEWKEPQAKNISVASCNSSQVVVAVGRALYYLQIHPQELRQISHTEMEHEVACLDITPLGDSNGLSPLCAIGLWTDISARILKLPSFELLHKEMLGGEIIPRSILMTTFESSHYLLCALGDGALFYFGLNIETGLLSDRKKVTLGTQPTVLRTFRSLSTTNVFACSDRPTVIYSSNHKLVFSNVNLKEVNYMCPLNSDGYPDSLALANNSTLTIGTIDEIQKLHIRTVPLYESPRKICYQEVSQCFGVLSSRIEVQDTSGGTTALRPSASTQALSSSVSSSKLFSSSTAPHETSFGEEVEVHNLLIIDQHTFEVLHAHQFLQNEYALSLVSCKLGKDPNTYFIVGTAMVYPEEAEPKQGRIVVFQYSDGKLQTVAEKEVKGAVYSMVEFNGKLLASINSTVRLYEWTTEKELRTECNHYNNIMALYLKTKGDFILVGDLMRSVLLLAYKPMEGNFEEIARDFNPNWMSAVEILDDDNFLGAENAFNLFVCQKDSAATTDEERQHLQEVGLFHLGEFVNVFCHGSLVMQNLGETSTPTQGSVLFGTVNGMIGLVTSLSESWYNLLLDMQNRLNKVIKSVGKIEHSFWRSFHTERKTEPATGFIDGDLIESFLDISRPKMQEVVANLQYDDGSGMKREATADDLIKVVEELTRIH
PAK3, sequence (O75914 whole entry): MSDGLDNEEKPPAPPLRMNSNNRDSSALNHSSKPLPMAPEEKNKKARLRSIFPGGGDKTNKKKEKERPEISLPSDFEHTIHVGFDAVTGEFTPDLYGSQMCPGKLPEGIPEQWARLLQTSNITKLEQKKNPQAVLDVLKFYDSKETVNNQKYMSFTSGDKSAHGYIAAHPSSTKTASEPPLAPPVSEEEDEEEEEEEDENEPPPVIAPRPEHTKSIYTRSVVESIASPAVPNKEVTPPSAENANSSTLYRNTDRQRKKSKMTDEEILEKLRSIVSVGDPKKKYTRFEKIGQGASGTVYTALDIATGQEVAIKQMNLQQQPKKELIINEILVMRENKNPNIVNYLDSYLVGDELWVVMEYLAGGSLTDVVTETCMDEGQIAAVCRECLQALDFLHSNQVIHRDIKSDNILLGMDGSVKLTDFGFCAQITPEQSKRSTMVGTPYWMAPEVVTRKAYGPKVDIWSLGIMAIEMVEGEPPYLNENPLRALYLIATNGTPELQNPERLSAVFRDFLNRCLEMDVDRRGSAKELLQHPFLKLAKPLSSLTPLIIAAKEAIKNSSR
NLK, sequence (Q9UBE8 whole entry): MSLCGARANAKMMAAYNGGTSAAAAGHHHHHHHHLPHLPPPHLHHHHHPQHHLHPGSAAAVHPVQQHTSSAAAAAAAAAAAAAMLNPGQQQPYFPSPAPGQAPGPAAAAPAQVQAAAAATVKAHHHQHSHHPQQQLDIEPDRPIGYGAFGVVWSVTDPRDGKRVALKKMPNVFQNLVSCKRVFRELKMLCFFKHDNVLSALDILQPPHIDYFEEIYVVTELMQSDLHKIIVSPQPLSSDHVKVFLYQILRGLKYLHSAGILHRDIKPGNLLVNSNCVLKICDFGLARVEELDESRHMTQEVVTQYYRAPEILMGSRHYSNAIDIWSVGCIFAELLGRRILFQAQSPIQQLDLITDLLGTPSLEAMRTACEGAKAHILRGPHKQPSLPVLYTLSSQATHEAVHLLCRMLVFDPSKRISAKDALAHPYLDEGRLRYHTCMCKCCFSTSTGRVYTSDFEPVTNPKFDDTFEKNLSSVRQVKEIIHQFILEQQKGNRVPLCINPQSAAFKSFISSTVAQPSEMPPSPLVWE
WEE1, sequence (P30291 whole entry): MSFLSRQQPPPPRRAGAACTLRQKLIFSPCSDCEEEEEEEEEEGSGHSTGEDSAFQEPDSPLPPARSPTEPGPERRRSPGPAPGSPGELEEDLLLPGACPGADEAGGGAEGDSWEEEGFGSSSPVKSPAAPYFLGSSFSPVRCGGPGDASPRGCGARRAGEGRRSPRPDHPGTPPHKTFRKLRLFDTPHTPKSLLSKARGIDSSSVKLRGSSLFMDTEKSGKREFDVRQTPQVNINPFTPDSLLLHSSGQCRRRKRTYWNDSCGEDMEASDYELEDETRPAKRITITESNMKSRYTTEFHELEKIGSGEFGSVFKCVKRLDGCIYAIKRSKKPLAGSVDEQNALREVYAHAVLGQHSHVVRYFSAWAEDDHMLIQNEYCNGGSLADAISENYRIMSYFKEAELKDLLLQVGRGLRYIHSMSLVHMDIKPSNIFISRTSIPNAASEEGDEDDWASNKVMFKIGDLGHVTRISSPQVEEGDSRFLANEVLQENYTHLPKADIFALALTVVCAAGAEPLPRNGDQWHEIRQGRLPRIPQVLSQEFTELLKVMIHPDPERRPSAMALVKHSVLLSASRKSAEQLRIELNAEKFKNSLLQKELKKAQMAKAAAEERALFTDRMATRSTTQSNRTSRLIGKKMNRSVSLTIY
CSNK1A1, sequence (P48729 whole entry): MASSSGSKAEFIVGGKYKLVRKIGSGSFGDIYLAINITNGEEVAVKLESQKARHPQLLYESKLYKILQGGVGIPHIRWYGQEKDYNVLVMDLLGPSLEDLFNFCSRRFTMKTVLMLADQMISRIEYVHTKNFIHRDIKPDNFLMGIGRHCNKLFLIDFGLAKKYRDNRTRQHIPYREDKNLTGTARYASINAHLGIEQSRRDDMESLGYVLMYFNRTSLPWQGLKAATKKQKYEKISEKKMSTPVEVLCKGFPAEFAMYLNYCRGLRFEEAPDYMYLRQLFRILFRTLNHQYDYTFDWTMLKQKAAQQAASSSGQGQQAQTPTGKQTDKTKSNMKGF
TLK2, sequence (Q86UE8 whole entry): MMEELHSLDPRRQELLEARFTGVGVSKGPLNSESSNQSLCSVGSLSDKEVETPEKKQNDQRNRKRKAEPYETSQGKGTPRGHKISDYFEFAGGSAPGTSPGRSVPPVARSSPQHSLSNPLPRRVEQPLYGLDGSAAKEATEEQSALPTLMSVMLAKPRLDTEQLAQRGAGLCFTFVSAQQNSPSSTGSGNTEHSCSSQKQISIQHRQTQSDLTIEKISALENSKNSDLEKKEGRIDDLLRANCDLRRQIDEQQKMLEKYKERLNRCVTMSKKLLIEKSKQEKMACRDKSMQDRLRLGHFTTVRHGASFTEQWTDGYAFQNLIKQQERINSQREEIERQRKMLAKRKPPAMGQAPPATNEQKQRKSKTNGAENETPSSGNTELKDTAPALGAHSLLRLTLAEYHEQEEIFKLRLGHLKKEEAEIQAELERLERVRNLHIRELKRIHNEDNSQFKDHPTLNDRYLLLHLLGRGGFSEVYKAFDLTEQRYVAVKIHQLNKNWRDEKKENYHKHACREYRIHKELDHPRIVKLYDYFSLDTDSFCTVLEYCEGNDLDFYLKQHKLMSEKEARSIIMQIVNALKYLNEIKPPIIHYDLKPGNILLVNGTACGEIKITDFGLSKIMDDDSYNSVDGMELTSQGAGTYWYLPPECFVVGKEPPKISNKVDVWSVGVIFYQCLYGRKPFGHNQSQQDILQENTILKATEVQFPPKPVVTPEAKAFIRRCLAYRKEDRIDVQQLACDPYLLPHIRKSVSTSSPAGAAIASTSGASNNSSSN

**Q.** What does the source list for `O=C1CCC(N2C(=O)c3cccc(NCCCCCCCCNC(=O)N4CC[C@H](NC5=Nc6cc(F)ccc6N(CC(F)F)c6ccc(Cl)cc65)C4)c3C2=O)C(=O)N1` (stereo partly drawn) [BJG-05-039, (3S)-3-((2-Chloro-5-(2,2-difluoroethyl)-8-fluoro-5H-dibenzo[b,e][1,4]diazepin-11-yl)amino)-N-(8-((2-(2,6-dioxopiperidin-3-yl)-1,3-dioxoisoindolin-4-yl)amino)octyl)pyrrolidine-1-carboxamide]?
**A.** remaining binding at 10 µM (CLK2): 95%; remaining binding at 10 µM [1]: 100%; remaining binding at 10 µM (PLK4): 85%; remaining binding at 10 µM (CAMK2D): 45%; remaining binding at 10 µM (ROS1): 94%; remaining binding at 10 µM (CSNK1A1): 93%; remaining binding at 10 µM (EPHA7): 90%; remaining binding at 10 µM (ROCK2): 100%; remaining binding at 10 µM (MRCKA): 63%; remaining binding at 10 µM (ADCK3): 83%; remaining binding at 10 µM (DMPK2): 72%; remaining binding at 10 µM (PAK3): 100%; remaining binding at 10 µM (TLK2): 80%; remaining binding at 10 µM (ULK3): 92%; remaining binding at 10 µM (NLK): 53%; remaining binding at 10 µM (CDK4-cyclinD3): 100%; remaining binding at 10 µM (WEE1): 42%; remaining binding at 10 µM (MEK2): 96%; remaining binding at 10 µM (HPK1): 92%; remaining binding at 10 µM (BMPR2): 100%; remaining binding at 10 µM (TGFBR1): 100%; remaining binding at 10 µM (MRCKB): 67%; remaining binding at 10 µM (PRKG2): 100%; Reduction in PAK1 expression (Nluc-PAK1; 10 nM, HEK293 Nluc-PAK1 cells, 24 hours): approximately 70%; Concentration of half-maximal degradation of PAK1 (Nluc-PAK1; HEK293 Nluc-PAK1 cells): low nM concentrations; Loss of the PAK1 protein (Nluc-PAK1; in the absence of drug efflux inhibitors): 70%; remaining binding at 10 µM (p38-alpha): 60%; remaining binding at 10 µM (CIT): 94%; remaining binding at 10 µM (CAMK1G): 63%; remaining binding at 10 µM (TNK1): 83%
